Data reported in article PMC5158083 (PLoS Pathogens, 2016).
Where “and” joins values, the source holds several entries; their conditions need not be identical. Identical values can stand only once. Non-standard residues stand in square brackets, D forms with d. Residues, ends and D or L forms follow the SMILES beside them. *: point of attachment. Sta = CC(C)C[C@H](N)[C@@H](O)CC(=O)O; Isovaleryl = CC(C)CC(=O)*

What was measured:
[1] = tested on: peptidase activity in DMEM conditioned media; test: Class-specific peptidase inhibitors on IQ substrate cleavage by DMEM conditioned media; format: biochemical, Cryptococcus neoformans; settings: 1 mM 1-10-phenanthroline
Procedure: (§1) Although peptidase activity was evident under both culture conditions, differential substrate cleavage reflected differences in specificity. […] Adjustment of YNB supernatants from pH 5.0 to 7.4 (the pH of DMEM media) yielded only very low levels of any peptidase activity, while lowering the pH of DMEM supernatants from 7.4 to pH 5.0 produced a peptidase activity pattern similar to YNB media (S1 Fig).
(§2) Assays were conducted at room temperature on a Biotek Synergy H4 plate reader in a 50 μl volume using 96-well round bottom, polystyrene plates (Corning) with λex 328 nm λem 393 nm unless otherwise stated. Substrates were each 7 or 8 amino acids with 7-methoxycoumarin-4-acetic acid or 7-methoxycoumarin-4-yl-acetyl-L-lysine on the amino terminus, and at the carboxyl terminus 4-dinitrophenyl-L-lysine or 4-dinitrophenyl bound directly to the carboxyl terminus as indicated (For sequences see S1 Table). Substrates were assayed at a 10 μM final concentration from DMSO stocks. […]
(§3) Supplementary file ppat.1006051.s001.pdf: S1 Fig Fluorogenic assays indicate the endopeptidase class present in conditioned media and the optimal pH for detection of activity. […] The activity scale is differs for this experiment because this assay was conducted on a SpectraMax Gemini plate reader (Molecular Devices) although conditions were otherwise equivalent. […]

May1 = biological target: T1, May1 (Cryptococcus neoformans, UniProt J9VS02); test: May1 inhibition, fluorogenic IQ-2 assay (screen and IC50); format: biochemical; settings: for IC50: 14.6 nM May1, 10 μM IQ-2, 100 mM MES 100 mM NaCl pH 4.5, 10 min preincubation, read-out: IC50 against May1
T1 construct: endogenous in cells; host or cells: wild-type C. neoformans H99, 32-hour YNB culture supernatant, enriched on HiTrap DEAE
T1 sequence (J9VS02 99-455 limits assumed): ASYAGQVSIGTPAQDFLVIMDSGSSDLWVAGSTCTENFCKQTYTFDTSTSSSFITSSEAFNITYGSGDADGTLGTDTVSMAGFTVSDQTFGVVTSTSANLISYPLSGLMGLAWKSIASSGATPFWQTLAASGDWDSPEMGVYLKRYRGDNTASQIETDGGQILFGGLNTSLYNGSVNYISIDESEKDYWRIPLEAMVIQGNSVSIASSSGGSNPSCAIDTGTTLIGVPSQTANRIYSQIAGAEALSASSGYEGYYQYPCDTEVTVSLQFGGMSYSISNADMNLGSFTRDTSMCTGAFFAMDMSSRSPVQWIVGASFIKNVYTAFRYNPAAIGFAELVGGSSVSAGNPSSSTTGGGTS
Procedure: Assays were conducted at room temperature on a Biotek Synergy H4 plate reader in a 50 μl volume using 96-well round bottom, polystyrene plates (Corning) with λex 328 nm λem 393 nm unless otherwise stated. Substrates were each 7 or 8 amino acids with 7-methoxycoumarin-4-acetic acid or 7-methoxycoumarin-4-yl-acetyl-L-lysine on the amino terminus, and at the carboxyl terminus 4-dinitrophenyl-L-lysine or 4-dinitrophenyl bound directly to the carboxyl terminus as indicated (For sequences see S1 Table). Substrates were assayed at a 10 μM final concentration from DMSO stocks. Biotek Gen5 software was used to calculate initial velocities in relative fluorescent units per second (RFU/sec) from 20 points over the linear portion of each assay. To assay activity, YNB conditioned media was adjusted to pH 4.5 using 100 mM MES, 100 mM NaCl buffer, […] at a final concentration of 26 mM MES, 26 mM NaCl, unless otherwise stated. Conditioned DMEM media was first buffer exchanged into PBS using a centrifugal filter unit with a 3 kDa cutoff (Millipore) before use. The peptidase inhibitors pepstatin A, 1-10-phenanthroline, AEBSF and E64 were dissolved in DMSO and were obtained from Sigma-Aldrich.
To concentrate secreted May1, YNB conditioned media was prepared as described above from 32-hour cultures of wild-type C. neoformans. The media was then diluted 2.7-fold into buffer A (50 mM Tris base pH 8), chosen to increase the pH in order to limit May1 autoproteolysis, dilute salts in the media (final conductivity ~6%), and confer a negative charge to the peptidase domain. The media was then loaded onto a 1 ml HiTrap DEAE fast flow column (GE Healthcare) using a fast protein liquid chromatography system with a flow rate of 1.5 ml/min. May1 was eluted using a 30 minute linear gradient of 0–100% buffer B (50 mM Tris base, 1 M NaCl, pH 8). Active fractions were determined by measuring activity using the substrate IQ-2. They were then combined and approximate May1 concentration determined by active-site titration.
Published methods were followed with minor modifications.
IC50 calculations were conducted using 14.6 nM May1 (100 mM MES 100 mM NaCl pH 4.5). Inhibitor stocks were dissolved in DMSO and incubated with May1 for 10 minutes before addition of substrate. GraphPad Prism 6 was used to calculate IC50 values from a plot of the log of inhibitor concentration versus normalized response.

wild type C. neoformans = test: Culture density at saturation (OD600) of wild type C. neoformans in YNB treated with May1 inhibitors; format: cell-based, Cryptococcus neoformans; settings: 2 μM pepstatin A
Procedure: Fig 5 May1 activity is required for wild-type growth at acidic pH. (A) Culture density was recorded over time by measuring OD600 of cultures grown in YNB. The average density and S.D. of triplicates are shown. (B) Culture density of wild-type C. neoformans grown in YNB containing 2 μM pepstatin A was recorded. Mock indicates DMSO treatment. The average and S.D. of cultures grown in triplicate are shown. (C) Mutant characterization assays were conducted using YNB agar plates. Cultures were adjusted to an OD600 of 5 and then spotted in 10-fold serial dilutions on plates. (D) Full rescue of may1Δ saturation density in YNB was observed after buffering to pH 6.5. Average density and S.D. of triplicates are shown.
Next, we selected the two best in vitro hits to test their potency in culture relative to pepstatin A by measuring inhibition of May1 and restriction of culture growth using fluorogenic assays and OD600 respectively. […] None of the three compounds affected the culture density of a may1Δ strain, consistent with the idea that May1 is the compounds’ relevant target in this context (S11 Fig). […] However, additional medicinal chemistry efforts are necessary for in vivo applications. Therefore, subsequent studies investigating the role of May1 in virulence were carried out using deletion strains of this enzyme. […]

may1Δ C. neoformans = test: Culture density of may1Δ strain in YNB treated with May1 inhibitors; format: cell-based, Cryptococcus neoformans; settings: YNB cultures
Procedure: Average values and S.D. of triplicate measurements are shown. (B) Density at saturation (after 48 hours of growth) is shown for YNB cultures of wild type or may1Δ C. neoformans treated with May1 inhibitors. Average values and S.D. of triplicates are shown.

[2] = tested on: peptidase activity in YNB conditioned media; test: Class-specific peptidase inhibitors on IQ substrate cleavage by YNB conditioned media; format: biochemical, Cryptococcus neoformans; settings: 1 µM pepstatin
Procedure: as §1, §2, §3

Row | Compound | sensitivity of IQ substrate cleavage by DMEM conditioned media to inhibitor [1] | IC50 (May1) | reduction of May1 activity (May1; 1 μM inhibitor, substrate IQ-2) [%] | inhibition of proteolysis of IQ-2 by enriched May1 (May1; May1 enriched from YNB conditioned media) | saturation density of wild type cultures in YNB (wild type C. neoformans) | effect on culture density of may1Δ cells (may1Δ C. neoformans) | sensitivity of IQ substrate cleavage by conditioned YNB media to inhibitor [2]
1 | c1cnc2c(c1)ccc1cccnc12 [1-10-phenanthroline] | sensitive | – | – | – | – | – | –
2 | Cc1nc(COc2ccc(C[C@H](NC(=O)O[C@H]3CO[C@H]4OCC[C@H]43)[C@H](O)CN(CC(C)C)S(=O)(=O)c3ccc4c(c3)OCO4)cc2)cs1 [Brecanavir] | – | 352 nM and ~352 nM | 80 | – | – | – | –
3 | CC(C)CC(=O)N[C@H](C(=O)N[C@H](C(=O)N[C@@H](CC(C)C)[C@@H](O)CC(=O)N[C@@H](C)C(=O)N[C@@H](CC(C)C)[C@@H](O)CC(=O)O)C(C)C)C(C)C [Pepstatin A, pepstatin A] (Isovaleryl-VV[Sta]A[Sta]-OH) | – | 1.4 nM | – | fully inhibited | saturation density defect equivalent to that observed for the MAY1 deletion strains | no effect | sensitive
